Source: US10035806B2, “Derivatized corroles and metallocorroles and their use as imaging and therapeutic agents” (CALIFORNIA INSTITUTE OF TECHNOLOGY, priority 2015, dated 2018)

Columns and labels:
Experiment in all cases: NCI60 anticancer drug screen
Type in all cases: cell-based, human
[1] = system: BT-549; conditions: BT-549 (Breast Cancer), 10 μM, 48 h
Description: (§1) The aminocaproate-substituted corrole Complex 3 was submitted to NCI for cytotoxic screening at a single high dose (10−5M) in a panel of 60 human tumor cell lines (NCI60). Details of the cytotoxicity assessment in the NCI anticancer drug screen have been described previously, in Monks A, et al. (1991) Feasibility of a high-flux anticancer drug screen using a diverse panel of cultured human tumor cell lines. J Natl Cancer Inst 83(11):757-766, this reference being incorporated by reference for these teachings.
(§2) In view of the promising results observed for carboxylated corroles, Complex 3 was selected for expanded cell screening to uncover additional susceptible cancer cell lines. The cytotoxic activity of Complex 3 was tested at a dose of 10^−5 M against 60 human cancer cell lines representing nine distinct tumor types in the anticancer screening program of the National Cancer Institute (NCI). The in vitro parameters for cytotoxicity, growth percent, and lethality were obtained for Complex 3 and reported as a mean graph of the percent growth of treated cells (FIG. 7). Bars in the mean graph depict the deviation of individual tumor cell lines from the overall mean value for all cells tested. Bars that project to the right of the mean represent cell lines that are more sensitive to Complex 3, whereas cell lines less sensitive to the compound display bars that project to the left.
(§3) The numerical values associated with this assay represent growth relative to the no-drug control and the numbers of cells at time 0 (FIG. 7). This allows detection of both growth inhibition (values between 0 and 100) and lethality (values less than 0). For example, a value of 100 signifies no growth inhibition, 40 means 60% growth inhibition, 0 means no net growth over the course of the experiment, −40 means 40% lethality, and −100 indicates all cells are dead. […] Growth inhibitions reflect cytostatic activity of the compound as previously shown for Complex 2. In contrast, cell lethality is only evident in melanoma cells, specifically the LOX IMVI and SK-MEL-28 cell lines.

[2] = system: CAK-1; conditions: CAK-1 (Renal Cancer), 10 μM, 48 h
Description: as §1, §2, §3

[3] = system: CCRF-CEM; conditions: CCRF-CEM (Leukemia), 10 μM, 48 h
Description: as §1, §2, §3

[4] = system: DU-145; conditions: DU-145 (Prostate Cancer), 10 μM, 48 h
Description: as §1, §2, §3

[5] = system: HCC-2998; conditions: HCC-2998 (Colon cancer), 10 μM, 48 h
Description: as §1, §2, §3

[6] = system: K-562; conditions: K-562 (Leukemia), 10 μM, 48 h
Description: as §1, §2, §3

[7] = system: KM12; conditions: KM12 (Colon cancer), 10 μM, 48 h
Description: as §1, §2, §3

[8] = system: M14; conditions: M14 (Melanoma), 10 μM, 48 h
Description: as §1, §2, §3

[9] = system: MDA-MB-231/ATCC; conditions: MDA-MB-231/ATCC (Breast Cancer), 10 μM, 48 h
Description: as §1, §2, §3

[10] = system: MDA-MB-435; conditions: MDA-MB-435 (Melanoma), 10 μM, 48 h
Description: as §1, §2, §3

[11] = system: MDA-MB-468; conditions: MDA-MB-468 (Breast Cancer), 10 μM, 48 h
Description: as §1, §2, §3

[12] = system: NCI-H322M; conditions: NCI-H322M (Non-small-cell lung cancer), 10 μM, 48 h
Description: as §1, §2, §3

[13] = system: NCI-H460; conditions: NCI-H460 (Non-small-cell lung cancer), 10 μM, 48 h
Description: as §1, §2, §3

[14] = system: OVCAR-8; conditions: OVCAR-8 (Ovarian Cancer), 10 μM, 48 h
Description: as §1, §2, §3

[15] = system: PC-3; conditions: PC-3 (Prostate Cancer), 10 μM, 48 h
Description: as §1, §2, §3

[16] = system: RPMI-8226; conditions: RPMI-8226 (Leukemia), 10 μM, 48 h
Description: as §1, §2, §3

[17] = system: SF-295; conditions: SF-295 (CNS Cancer), 10 μM, 48 h
Description: as §1, §2, §3

[18] = system: SK-MEL-2; conditions: SK-MEL-2 (Melanoma), 10 μM, 48 h
Description: as §1, §2, §3

[19] = system: SK-MEL-5; conditions: SK-MEL-5 (Melanoma), 10 μM, 48 h
Description: as §1, §2, §3

[20] = system: SK-OV-3; conditions: SK-OV-3 (Ovarian Cancer), 10 μM, 48 h
Description: as §1, §2, §3

[21] = system: SN12C; conditions: SN12C (Renal Cancer), 10 μM, 48 h
Description: as §1, §2, §3

[22] = system: SNB-75; conditions: SNB-75 (CNS Cancer), 10 μM, 48 h
Description: as §1, §2, §3

[23] = system: SR; conditions: SR (Leukemia), 10 μM, 48 h
Description: as §1, §2, §3

[24] = system: T-47D; conditions: T-47D (Breast Cancer), 10 μM, 48 h
Description: as §1, §2, §3

[25] = system: TK-10; conditions: TK-10 (Renal Cancer), 10 μM, 48 h
Description: as §1, §2, §3

[26] = system: U251; conditions: U251 (CNS Cancer), 10 μM, 48 h
Description: as §1, §2, §3

[27] = system: UACC-257; conditions: UACC-257 (Melanoma), 10 μM, 48 h
Description: as §1, §2, §3

[28] = system: UO-31; conditions: UO-31 (Renal Cancer), 10 μM, 48 h
Description: as §1, §2, §3

For O=C(O)CCCCCNc1c(F)c(F)c(C2=C3C=CC4=[N+]3[Ga-]35[n]6c2ccc6C(c2c(F)c(F)c(F)c(F)c2F)=c2ccc([n]23)=C(c2c(F)c(F)c(F)c(F)c2F)c2ccc4[n]25)c(F)c1F (stereo not shown) [Complex 3], the “Growth inhibition, %” value [1] was 73.0%, the “Growth inhibition, %” value [2] was 71.7% and the “Growth inhibition, %” value [3] was 91.1%. The “Growth inhibition, %” value [4] was 64.7%, the “Growth inhibition, %” value [5] was 60.1% and the “Growth inhibition, %” value [6] was 72.9%. The “Growth inhibition, %” value [7] was 80.6%, the “Growth inhibition, %” value [8] was 84.1% and the “Growth inhibition, %” value [9] was 72.5%. The “Growth inhibition, %” value [10] was 90.8%, the “Growth inhibition, %” value [11] was 86.3% and the “Growth inhibition, %” value [12] was 32.9%. For the same compound, the “Growth inhibition, %” value [13] was 94.2%, the “Growth inhibition, %” value [14] was 67.3% and the “Growth inhibition, %” value [15] was 71.9%. For the same compound, the “Growth inhibition, %” value [16] was 70.2%, the “Growth inhibition, %” value [17] was 53.2% and the “Growth inhibition, %” value [18] was 64.1%. The “Growth inhibition, %” value [19] was 72.0%, the “Growth inhibition, %” value [20] was 32.9% and the “Growth inhibition, %” value [21] was 78.8%. For the same compound, the “Growth inhibition, %” value [22] was 30.7%, the “Growth inhibition, %” value [23] was 87.5% and the “Growth inhibition, %” value [24] was 45.9%. For the same compound, the “Growth inhibition, %” value [25] was 47.3%, the “Growth inhibition, %” value [26] was 77.4% and the “Growth inhibition, %” value [27] was 37.2%. For the same compound, the “Growth inhibition, %” value [28] was 64.7%.
